Laboratory results reported in patent publication US20090191173A1, “Induction Of Neurogenesis And Stem Cell Therapy In Combination With Copolymer 1” (priority 2004, published 2009).
Like-named read-outs stand apart in the source and are kept apart here.

Experiments:
[1] = test system: neural progenitor cells (NPCs); experiment: Neurogenesis from NPCs co-cultured with microglia pre-activated by aggregated Aβ and cytokines; assay type: cell-based, mouse; conditions: 10 days; Aβ 5 μM 48 h, cytokines 10 ng/ml
Method: (xx) Reagents. Recombinant mouse IFN-γ and IL-4 (both containing endotoxin at a concentration below 0.1 ng/μg cytokine) were obtained from R&D Systems (Minneapolis, Minn.). β-amyloid peptides [amyloid protein fragment 1-40 and 1-42 (Aβ1-40/1-42)] were purchased from Sigma-Aldrich, St. Louis, Mo. The Aβ peptides were dissolved in endotoxin-free water, and Aβ aggregates were formed by incubation of Aβ, as described (Ishii et al., 2000). (xxv) Neural progenitor cell culture. Coronal sections (2 mm thick) of tissue containing the subventricular zone of the lateral ventricle were obtained from the brains of adult C57B1/6J mice. […] After centrifugation at 110×g for 15 min at room temperature, the tissue was mechanically dissociated by pipette trituration. Cells obtained from single-cell suspensions were plated (3500 cells/cm^2) in 75-cm^2 Falcon tissue-culture flasks (BD Biosciences, San Diego, Calif.), in NPC-culturing medium [Dulbecco's modified Eagles's medium (DMEM)/F12 medium (Gibco/Invitrogen, Carlsbad, Calif.) containing 2 mM L-glutamine, 0.6% glucose, 9.6 μg/ml putrescine, 6.3 ng/ml progesterone, 5.2 ng/ml sodium selenite, 0.02 mg/ml insulin, 0.1 mg/ml transferrin, 2 μg/ml heparin (all from Sigma-Aldrich, Rehovot, Israel), fibroblast growth factor-2 (human recombinant, 20 ng/ml), and epidermal growth factor (human recombinant, 20 ng/ml; both from Peprotech, Rocky Hill, N.J.)]. Spheres were passaged every 4-6 days and replated as single cells. Green fluorescent protein (GFP)-expressing NPCs were obtained as previously described (Pluchino et al., 2003). (xxvi) Primary microglial culture. Brains from neonatal (P0-P1) C57B1/6J mice were stripped of their meninges and minced with scissors under a dissecting microscope (Zeiss, Stemi DV4, Germany) in Leibovitz-15 medium (Biological Industries, Kibbutz Beit Ha-Emek, Israel). […] The cell suspension was washed in culture medium for glial cells [DMEM supplemented with 10% fetal calf serum (FCS; Sigma-Aldrich, Rehovot), L-glutamine (1 mM), sodium pyruvate (1 mM), penicillin (100 U/ml), and streptomycin ([…])] and cultured at 37° C./5% CO2 in 75-cm^2 Falcon tissue-culture flasks (BD Biosciences) coated with poly-D-lysine (PDL) (10 mg/ml; Sigma-Aldrich, Rehovot) in borate buffer (2.37 g borax and 1.55 g boric acid dissolved in 500 ml sterile water, pH 8.4) for 1 h, then rinsed thoroughly with sterile, glass-distilled water. Half of the medium was changed after 6 h in culture and every 2nd day thereafter, starting on day 2, for a total culture time of 10-14 days. […]

[2] = test system: spinal cord injury (SCI) in C57B1/6J mice; assay type: in vivo, mouse
[3] = test system: neural progenitor cells (NPCs); experiment: Oligodendrocyte differentiation (NG2, RIP, GalC) of NPCs co-cultured with activated microglia; assay type: cell-based, mouse; conditions: agent added to NPCs co-cultured with MG(IFN-γ)
Method: (iii) Neural progenitor cell (NPC) culture. Coronal sections (2 mm thick) of tissue containing the subventricular zone of the lateral ventricle were obtained from the brains of adult C57B16/J mice. The tissue was minced and then incubated for digestion at 37° C., 5% CO2 for 45 min in Earle's balanced salt solution containing 0.94 mg/ml papain (Worthington, Lakewood, N.J.) and 0.18 mg/ml of L-cysteine and EDTA. After centrifugation at 110×g for 15 min at room temperature, the tissue was mechanically dissociated by pipette trituration. Cells obtained from single-cell suspensions were plated (3500 cells/cm^2) in 75-cm^2 Falcon tissue-culture flasks (BD Biosciences, Franklin Lakes, N.J.), in NPC-culturing medium [Dulbecco's modified Eagles's medium (DMEM)/F12 medium (Gibco/Invitrogen, Carlsbad, Calif.) containing 2 mM L-glutamine, 0.6% glucose, 9.6 μg/ml putrescine, 6.3 ng/ml progesterone, 5.2 ng/ml sodium selenite, 0.02 mg/ml insulin, 0.1 mg/ml transferrin, 2 μg/ml heparin (all from Sigma-Aldrich, Rehovot, Israel), fibroblast growth factor-2 (human recombinant, 20 ng/ml), and epidermal growth factor (human recombinant, 20 ng/ml; both from Peprotech, Rocky Hill, N.J.)]. Spheres were passaged every 4-6 days and replated as single cells. Green fluorescent protein (GFP)-expressing neural progenitor cells (NPCs) were obtained as previously described (Pluchino et al., 2003). […]

## Aβ(1-40): aggregated amyloid protein fragment 1-40
[1]
  neurogenesis (GFP+/βIIIT+ cells) from NPCs co-cultured with treated microglia: blocked neurogenesis and decreased the number of NPCs

## Aβ(1-42): aggregated amyloid protein fragment 1-42
[1]
  neurogenesis (GFP+/βIIIT+ cells) from NPCs co-cultured with treated microglia: negative effect was not exhibited

## MEVGWYRSPFDRVVHLYRNGK [45D peptide, altered MOG 35-55 peptide, serine to aspartic acid substitution]
[2]; immunization in CFA 2.5% M. tuberculosis, without aNPC transplantation (FIG. 7C)
  Basso motor score (BMS), mean±SEM: 2.57±0.24
[2]; vaccination in CFA 2.5% M. tuberculosis 1 week before SCI, aNPCs i.c.v. 1 week after SCI (FIG. 7C)
  Basso motor score (BMS), mean±SEM: 4.11±0.27

## MEVGWYRSPFSRVVHLYRNGK [MOG/CFA, MOG peptide 35-55 emulsified in CFA containing 2.5% Mycobacterium tuberculosis]
[2]; MOG 35-55 in CFA 2.5% M. tuberculosis one week prior to SCI, no aNPCs (FIGS. 7G, 7H)
  Basso motor score (BMS): 0.35±0.2

## MEVGWYRSPFSRVVHLYRNGK [MOG/CFA/PBS, pMOG 35-55 emulsified in CFA, PBS i.c.v. instead of cells]
[2]; immunization immediately after SCI, CFA containing 0.5% Mycobacterium tuberculosis, i.c.v. injection 1 week later (FIG. 7A)
  Basso motor score (BMS), mean±SEM: 2.71±0.5

B1: rTNF-α: recombinant mouse TNF-α (protein)
chain: LRSSSQNSSDKPVAHVVANHQVEEQLEWLSQRANALLANGMDLKDNQLVVPADGLYLVYSQVLFKGQGCPDYVLLTHTVSRFAISYQEKVNLLSAVKSPCPKDTPEGAELKPWYEPIYLGGVFQLEKGDQLSAEVNLPKYLDFAESGQVYFGVIAL
[3]
  oligodendrogenesis induced by MG(IFN-γ): negative effect

B2: OVA/CFA/PBS: nonself protein ovalbumin emulsified in CFA, PBS i.c.v. (protein, UniProt P01012 2-386, looked up)
Ovalbumin: GSIGAASMEFCFDVFKELKVHHANENIFYCPIAIMSALAMVYLGAKDSTRTQINKVVRFDKLPGFGDSIEAQCGTSVNVHSSLRDILNQITKPNDVYSFSLASRLYAEERYPILPEYLQCVKELYRGGLEPINFQTAADQARELINSWVESQTNGIIRNVLQPSSVDSQTAMVLVNAIVFKGLWEKAFKDEDTQAMPFRVTEQESKPVQMMYQIGLFRVASMASEKMKILELPFASGTMSMLVLLPDEVSGLEQLESIINFEKLTEWTSSNVMEERKIKVYLPRMKMEEKYNLTSVLMAMGITDVFSSSANLSGISSAESLKISQAVHAAHAEINEAGREVVGSAEAGVDAASVSEEFRADHPFLFCIKHIATNAVLFFGRCVSP
modifications: emulsified in CFA
[2]; OVA in CFA 2.5% M. tuberculosis, i.c.v. injection 1 week later (FIG. 7F)
  Basso motor score (BMS): 2.2±0.68
